{"source": "patent US7033509B2", "about": "(priority 2000, dated 2006)", "key": {"[1]": {"tested_on": "fungi on the surface of orange", "assay": "Orange (L) laboratory dipping, fungi", "assay_type": "cell-based", "conditions": "concentrations of 3, 10 & 30 ppm iodine used"}, "[2]": {"tested_on": "fungi on the surface of nectarine", "assay": "Nectarine (L) laboratory dipping, fungi", "assay_type": "cell-based", "conditions": "concentrations of 3, 10 & 30 ppm iodine used"}, "[3]": {"tested_on": "bacteria on the surface of strawberry", "assay_type": "cell-based"}, "bacteria on bean sprouts": {"tested_on": "bacteria on bean sprouts", "assay": "Bean sprouts (ISU), bacteria", "assay_type": "cell-based", "conditions": "10, 20, 30 ppm iodine"}, "[4]": {"tested_on": "fungi on the surface of rockmelon", "assay_type": "cell-based"}, "[5]": {"tested_on": "fungi on the surface of lettuce", "assay": "Lettuce (L) laboratory dipping, fungi", "assay_type": "cell-based", "conditions": "10, 20, 30 ppm iodine"}, "[6]": {"tested_on": "fungi on the surface of potato", "assay_type": "cell-based"}, "[7]": {"tested_on": "bacteria on the surface of orange", "assay": "Orange (L) laboratory dipping, bacteria", "assay_type": "cell-based", "conditions": "concentrations of 3, 10 & 30 ppm iodine used"}, "[8]": {"tested_on": "naturally occurring surface organisms on fruits and vegetables", "assay": "Dipping time effect on efficacy (potatoes, oranges)", "assay_type": "cell-based, bacteria and fungi", "conditions": "iodine dips, one to four minutes"}, "[9]": {"tested_on": "fungi on the surface of peach", "assay_type": "cell-based"}, "[10]": {"tested_on": "fungi on the surface of potato", "assay": "Potato (L) laboratory dipping, fungi", "assay_type": "cell-based", "conditions": "concentrations of 3, 10 & 30 ppm iodine used"}, "[11]": {"tested_on": "bacteria on the surface of tomato", "assay": "Tomato (L) laboratory dipping, bacteria", "assay_type": "cell-based", "conditions": "10, 20, 30 ppm iodine"}, "[12]": {"tested_on": "bacteria on the surface of rockmelon", "assay_type": "cell-based"}, "[13]": {"tested_on": "fungi on the surface of apple", "assay_type": "cell-based"}, "[14]": {"tested_on": "fungi on the surface of tomato", "assay": "Tomato (L) laboratory dipping, fungi", "assay_type": "cell-based", "conditions": "10, 20, 30 ppm iodine"}, "[15]": {"tested_on": "bacteria on the surface of nectarine", "assay": "Nectarine (L) laboratory dipping, bacteria", "assay_type": "cell-based", "conditions": "concentrations of 3, 10 & 30 ppm iodine used"}, "[16]": {"tested_on": "bacteria on the surface of apple", "assay_type": "cell-based"}, "[17]": {"tested_on": "bacteria on the surface of avocado", "assay_type": "cell-based"}, "[18]": {"tested_on": "fungi on the surface of avocado", "assay_type": "cell-based"}, "[19]": {"tested_on": "bacteria and fungi found on fresh fruit and vegetables", "assay": "Summary of efficacy results: comparison bacteria/fungi and iodine/chlorine", "assay_type": "cell-based"}, "[20]": {"tested_on": "bacteria on the surface of lettuce", "assay_type": "cell-based"}, "[21]": {"tested_on": "fungi on the surface of strawberry", "assay_type": "cell-based"}, "[22]": {"tested_on": "bacteria on the surface of peach", "assay_type": "cell-based"}, "Escherichia coli": {"tested_on": "Escherichia coli", "conditions": "compared with chlorine, especially at the higher temperature and pH values; cited from earlier work"}, "[23]": {"tested_on": "bacteria on the surface of lettuce", "assay": "Lettuce (L) laboratory dipping, bacteria", "assay_type": "cell-based", "conditions": "10, 20, 30 ppm iodine"}, "[24]": {"tested_on": "bacteria on the surface of potato", "assay_type": "cell-based"}, "fungi on bean sprouts": {"tested_on": "fungi on bean sprouts", "assay": "Bean sprouts (ISU), fungi", "assay_type": "cell-based", "conditions": "10, 20, 30 ppm iodine"}, "[25]": {"tested_on": "fungi on the surface of lettuce", "assay_type": "cell-based"}, "[26]": {"tested_on": "bacteria on the surface of potato", "assay": "Potato (L) laboratory dipping, bacteria", "assay_type": "cell-based", "conditions": "concentrations of 3, 10 & 30 ppm iodine used"}}, "note": "Several values for one entry are separate records, joined by “and”; a condition that tells them apart may be missing. Identical values can stand only once. Like-named read-outs stand apart in the source and are kept apart here.", "data": [{"compound": "II", "values": [{"measurement": "Fungi—dose for ~1.5 log10 reduction", "setting": "[1]", "result": 30, "unit": "ppm"}, {"measurement": "Fungi—dose for ~1.5 log10 reduction", "setting": "[2]", "result": 10, "unit": "ppm"}, {"measurement": "Bacteria—dose for ~1.5 log10 reduction", "setting": "[3]", "result": ">30", "unit": "ppm"}, {"measurement": "Bacteria—dose for ~1.5 log10 reduction", "setting": "bacteria on bean sprouts", "result": 30, "unit": "ppm"}, {"measurement": "Fungi—dose for ~1.5 log10 reduction", "setting": "[4]", "result": 20, "unit": "ppm"}, {"measurement": "Fungi—dose for ~1.5 log10 reduction", "setting": "[5]", "result": ">30", "unit": "ppm"}, {"measurement": "Fungal population per cm^2 Actual count", "setting": "[6]", "result": "2 per cm^2 and 3 per cm^2"}, {"measurement": "Fungi—dose for ~1.5 log10 reduction", "setting": "[6]", "result": 10, "unit": "ppm"}, {"measurement": "Bacteria—dose for ~1.5 log10 reduction", "setting": "[7]", "result": 30, "unit": "ppm"}, {"measurement": "effect of dip time on effectiveness", "setting": "[8]", "result": "equivalent in effectiveness to doubling the dip concentration"}, {"measurement": "Fungi—dose for ~1.5 log10 reduction", "setting": "[9]", "result": 30, "unit": "ppm"}, {"measurement": "Fungi—dose for ~1.5 log10 reduction", "setting": "[10]", "result": ">30", "unit": "ppm"}, {"measurement": "Bacteria—dose for ~1.5 log10 reduction", "setting": "[11]", "result": 20, "unit": "ppm"}, {"measurement": "Bacterial population per cm^2 Actual count", "setting": "[12]", "result": "19,514 per cm^2 and 14,456 per cm^2 and 10,028 per cm^2"}, {"measurement": "Bacterial population per cm^2 Log10 count", "setting": "[12]", "result": "4.26 log10 units and 4.15 log10 units and 3.98 log10 units"}, {"measurement": "Bacterial population per cm^2 Log10 reduction", "setting": "[12]", "result": "0.83 b log10 units and 0.93 bc log10 units and 1.10 cd log10 units"}, {"measurement": "Bacteria—dose for ~1.5 log10 reduction", "setting": "[12]", "result": ">30", "unit": "ppm"}, {"measurement": "Fungi—dose for ~1.5 log10 reduction", "setting": "[13]", "result": 10, "unit": "ppm"}, {"measurement": "Fungi—dose for ~1.5 log10 reduction", "setting": "[14]", "result": 20, "unit": "ppm"}, {"measurement": "Bacteria—dose for ~1.5 log10 reduction", "setting": "[15]", "result": 3.3, "unit": "ppm"}, {"measurement": "Bacteria—dose for ~1.5 log10 reduction", "setting": "[16]", "result": 10, "unit": "ppm"}, {"measurement": "Bacteria—dose for ~1.5 log10 reduction", "setting": "[17]", "result": 10, "unit": "ppm"}, {"measurement": "Fungi—dose for ~1.5 log10 reduction", "setting": "[18]", "result": 20, "unit": "ppm"}, {"measurement": "Better Control of Bacteria/Fungi", "setting": "[19]; Apples (ISU)", "result": "Fungi"}, {"measurement": "Better control by iodine/chlorine", "setting": "[19]; Apples (ISU)", "result": "Iodine"}, {"measurement": "Better Control of Bacteria/Fungi", "setting": "[19]; Avocado (ISU)", "result": "Bacteria"}, {"measurement": "Better control by iodine/chlorine", "setting": "[19]; Avocado (ISU)", "result": "Iodine"}, {"measurement": "Better control by iodine/chlorine", "setting": "[19]; Bean sprouts (ISU)", "result": "Iodine"}, {"measurement": "Better Control of Bacteria/Fungi", "setting": "[19]; Lettuce (ISU)", "result": "Fungi"}, {"measurement": "Better control by iodine/chlorine", "setting": "[19]; Lettuce (ISU)", "result": "Iodine"}, {"measurement": "Better Control of Bacteria/Fungi", "setting": "[19]; Lettuce (L)", "result": "Bacteria"}, {"measurement": "Better control by iodine/chlorine", "setting": "[19]; Lettuce (L)", "result": "Chlorine"}, {"measurement": "Better Control of Bacteria/Fungi", "setting": "[19]; Nectarine (L)", "result": "Bacteria"}, {"measurement": "Better control by iodine/chlorine", "setting": "[19]; Nectarine (L)", "result": "Iodine"}, {"measurement": "Better Control of Bacteria/Fungi", "setting": "[19]; Orange (L)", "result": "Bacteria"}, {"measurement": "Better control by iodine/chlorine", "setting": "[19]; Orange (L)", "result": "Chlorine"}, {"measurement": "Better Control of Bacteria/Fungi", "setting": "[19]; Peach (L)", "result": "Bacteria"}, {"measurement": "Better control by iodine/chlorine", "setting": "[19]; Peach (L)", "result": "Iodine"}, {"measurement": "Better Control of Bacteria/Fungi", "setting": "[19]; Potato (ISU)", "result": "Fungi"}, {"measurement": "Better control by iodine/chlorine", "setting": "[19]; Potato (ISU)", "result": "Iodine"}, {"measurement": "Better Control of Bacteria/Fungi", "setting": "[19]; Potato (L)", "result": "Fungi"}, {"measurement": "Better control by iodine/chlorine", "setting": "[19]; Potato (L)", "result": "Iodine"}, {"measurement": "Better Control of Bacteria/Fungi", "setting": "[19]; Rockmelon (ISU)", "result": "Fungi"}, {"measurement": "Better control by iodine/chlorine", "setting": "[19]; Rockmelon (ISU)", "result": "Same effectiveness"}, {"measurement": "Better Control of Bacteria/Fungi", "setting": "[19]; Strawberry (ISU)", "result": "Fungi"}, {"measurement": "Better control by iodine/chlorine", "setting": "[19]; Strawberry (ISU)", "result": "Iodine"}, {"measurement": "Better Control of Bacteria/Fungi", "setting": "[19]; Tomato (L)", "result": "Fungi"}, {"measurement": "Better control by iodine/chlorine", "setting": "[19]; Tomato (L)", "result": "Iodine"}, {"measurement": "effectiveness compared with an equivalent concentration of chlorine", "setting": "[19]; over the range of products and concentrations used", "result": "considerably more effective"}, {"measurement": "Bacteria—dose for ~1.5 log10 reduction", "setting": "[20]", "result": 20, "unit": "ppm"}, {"measurement": "Fungi—dose for ~1.5 log10 reduction", "setting": "[21]", "result": 30, "unit": "ppm"}, {"measurement": "Bacteria—dose for ~1.5 log10 reduction", "setting": "[22]", "result": 10, "unit": "ppm"}, {"measurement": "efficiency for the control of Escherichia coli in dirty water", "setting": "Escherichia coli", "result": "greater than that of chlorine"}, {"measurement": "Bacteria—dose for ~1.5 log10 reduction", "setting": "[23]", "result": 30, "unit": "ppm"}, {"measurement": "Bacterial population per cm^2 Actual count", "setting": "[24]", "result": "370 per cm^2 and 260 per cm^2 and 249 per cm^2"}, {"measurement": "Bacterial population per cm^2 Log10 count", "setting": "[24]", "result": "2.54 log10 units and 2.34 log10 units and 2.38 log10 units"}, {"measurement": "Bacterial population per cm^2 Log10 reduction", "setting": "[24]", "result": "0.39 ab log10 units and 0.58 b log10 units and 0.54 b log10 units"}, {"measurement": "Bacteria—dose for ~1.5 log10 reduction", "setting": "[24]", "result": ">30", "unit": "ppm"}, {"measurement": "Fungi—dose for ~1.5 log10 reduction", "setting": "fungi on bean sprouts", "result": 30, "unit": "ppm"}, {"measurement": "Fungal population per cm^2 Log10 count", "setting": "[25]", "result": "−0.12 log10 units and −0.35 log10 units"}, {"measurement": "Fungi—dose for ~1.5 log10 reduction", "setting": "[25]", "result": 10, "unit": "ppm"}, {"measurement": "Bacteria—dose for ~1.5 log10 reduction", "setting": "[26]", "result": ">30", "unit": "ppm"}]}]}
